Columns and labels:
[1] = test system: LFA-1; test: Laminar flow adhesion assay: LFA-1 mediated adhesion to ICAM-1 triggered by CCL21; assay type: cell-based; details: mouse T cells pre-treated, FIGS. 4G-J
Protocol: Purified ICAM-1-Fc (R&D Systems, Minneapolis, Minn.) were coated alone or with mouse CCL21 (R&D Systems) on polystyrene plates, as previously described [Grabovsky V et al. (2000) J Exp Med. 192, 495-506; Sigal A et al. (2000) J. Immunol. 165, 442-452]. The polystyrene plates were each assembled on the lower wall of the flow chamber as previously described [Feigelson S W et al. (2001) J Biol. Chem. 276, 13891-13901]. All flow experiments were conducted at 37° C.
Mouse T cells were purified and re-suspended in HBSS++ (HBSS, Mg^2+Ca^2+) with ICAM-1-Fc or mCCL2 for 1 hr. Cells were then perfused through the flow chamber at low shear stress (0.5-0.75 dyn/cm2) for 2 min. Tethers were defined as transient or rolling if cells attached briefly (less than 2 seconds) to the substrate, and as arrests if cells immediately arrested and remained stationary for at least 5 seconds of continuous flow. To assess adhesion strengthening, post arrest resistance to detachment over time was determined. Accumulated cells were subjected to a shear stress of 5 dyn/cm^2 for 10 minutes. At the indicated time points, the number of cells that remained bound was expressed relative to T cell population originally accumulated in the first 2 minutes of the assay.

[2] = test system: CD151; test: CD151 cell surface expression on T cells (flow cytometry); assay type: cell-based, mouse; details: CCL2 1 ng/ml
Protocol: Freshly isolated T cells were pre-incubated in the presence or absence of CCL2 (1 ng/ml, PeproTech) for several time periods (see the results section below). After incubation the cells were double stained with anti-CD3 (Pharmagene) and anti-CD151 (Santa Cruz) and the secondary antibody alexa goat anti rabbit (Invitrogene) was used. Expression of the stained proteins was analyzed by flow cytometry.

[3] = picomolar circulating CCL2; Flaishon et al. 2008, WO 2008/012796; cited from earlier work
[4] = test system: T lymphocyte; details: picomolar levels of CCL2; Flaishon et al. 2008, WO 2008/012796; cited from earlier work
[5] = test system: CD151/VLA4 complex; test: Co-immunoprecipitation of CD151 with β1 integrin (CD151/VLA4 complex); assay type: cell-based, mouse
Protocol: (§1) 1×10^7 T cells from control C57BL/6 or CCR2−/− mice were suspended in 1 ml RPMI medium containing 10% (v/v) FCS. Next, 1 ng/ml of CCL2 (PeproTech) was added to half of the tubes (the other half was kept as a control), and the tubes were placed at 37° C. for different time periods (see the results section below). After incubation, the cells were washed and used for the different experiments.
Stimulated frozen cells were lysed in lysis buffer containing: 25 mM Tris, pH 7.4; 2 mM Vanadate; 75 mM glycophosphate, pH 7.2; 2 mM EDTA; 2 mM EGTA; 10 mM NaPPi; and 0.5% NP-40, in the presence of the following protease inhibitors: 10 mg/ml Leupeptin; 10 mg/ml aprotinin; 10 mg/ml pepstatin; 10 mg/ml chymostatin (Roche); 1 mM PMSF (Sigma); and 20 mM N-etheyl-melamide (Sigma).
(§2) Protein G-Sepharose beads (GE Healthcare) were conjugated to Tyr (P) monoclonal antibody (Santa Cruz) or to anti-CD151 (Santa Cruz) for 2 hours at 4° C. followed by three washes in phosphate-buffered saline. Beads were added to the cell lysates and proteins were immunoprecipitated overnight. The protein G-bound material was washed three times with phosphate-buffered saline containing 0.1% SDS and 0.5% Nonidet P-40. Immunoprecipitates were separated by SDS-PAGE. […]

[6] = test system: T cells; test: Cytoskeleton rearrangement: CCL21-induced actin polymerization (FITC-phalloidin, flow cytometry); assay type: cell-based, mouse
Protocol: T cells were pre-incubated in the presence or absence of CCL2 (1 ng/ml, PeproTech) for 1 hour and were then stimulated with CCL21 (SLC, 100 ng/ml, PeproTech). Cells were fixed by 3.7% formaldehyde solution (Merck) and cytoskeleton rearrangement was analyzed by flow cytometry following staining with fluorescein isothiocyanate (FITC)-phalloidin, as was previously described [Flaishon et al., J. Biol. Chem. (2001) 276: 46701-46706].
For CD151 activation leading to cytoskeletal rearrangement-T cells were pretreated with either 2 μg/ml of activating antibody specific for the extracellular domain of CD151 (Santa Cruz) or with an isotype control antibody IgG rabbit anti mouse (ImmunoResearch Labs.inc)/anti CUL1 (Santa Cruz) for 1 hour/20 hours.
For blocking CD151− T cells were pretreated for 1 hour with 10 μg/ml blocking anti-CD151 antibody (BD pharmingen) or with 10 μg/ml control antibody anti-IgG (ImmunoResearch Labs.inc)/anti KPL1 (Chemicon).
Next, a 100 ng/ml chemokine CCL21 (SLC, PeproTech) stimulation was carried out and the cells were fixed by 3.7% formaldehyde solution (Merck), permeabilized and stained with fluorescein isothiocyanate (FITC)-phalloidin, as was previously described [Flaishon et al., J. Biol. Chem. (2001) 276: 46701-46706]. Cytoskeleton rearrangement was analyzed by flow cytometry.
1×10^7 T cells were incubated in the presence or absence of CCL2 for 10 minutes, followed by stimulation with either activating anti-CD151 (Santa Cruz, 2 μg/ml) or an isotype control antibody IgG rabbit anti mouse (ImmunoResearch Labs.inc, 2 μg/ml) for 1 hour. The cells were then stimulated with CCL21 (100 ng/ml) and actin polymerization was analyzed.
Cells were fixed by 3.7% formaldehyde solution (Merck), and cytoskeleton rearrangement was analyzed by flow cytometry following staining with fluorescein isothiocyanate (FITC)-phalloidin, as was previously described [Flaishon et al. (2001), supra].

[7] = test system: β-catenin; test: Detection of β-catenin phosphorylation in T cells; assay type: cell-based, mouse; details: CCL2 1 ng/ml 10 minutes before activating anti-CD151 5 minutes, FIG. 4F
Protocol: 1×10^7 T cells were suspended in 1 ml RPMI medium containing 10% (v/v) FCS. The cells were stimulated with either 2 μg/ml anti-CD151 (Santa Cruz) or an isotype control antibody IgG rabbit anti mouse (ImmunoResearch Labs.inc). Thereafter, the cells were immediately placed at 37° C. for 5 minutes. Immediately after stimulation, the cells were fast frozen in liquid N2 and were lysed in lysis buffer containing: 25 mM Tris, pH 7.4; 2 mM Vanadate; 75 mM glycophosphate, pH 7.2; 2 mM EDTA; 2 mM EGTA; 10 mM NaPPi; and 0.5% NP-40, in the presence of the following protease inhibitors: 10 mg/ml Leupeptin; 10 mg/ml aprotinin; 10 mg/ml pepstatin; 10 mg/ml chymostatin (Roche); 1 mM PMSF (Sigma); and 20 mM N-etheyl-melamide (Sigma).
as §2, with “Cruz)” for “Cruz) or to anti-CD151 (Santa Cruz)”, “C.,” for “C.”, “SDS-PAGE. The protein bands were transferred onto a nitrocellulose membrane and probed with anti β-cat (BD Transduction Laboratories) followed by horseradish peroxidase-conjugated anti-mouse IgG (Jackson ImmunoResearch Labs, West Grove, Pa.).” for “SDS-PAGE.”

[8] = test system: CD151; test: CD151 mRNA expression in T cells (DNA chip array, RT-PCR, real-time PCR); assay type: cell-based, mouse
Protocol: as §1
Total RNA was isolated from cells using the Tri reagent kit (Molecular Research Center, Inc). Reverse transcription was carried out using Superscript II RT (Gibco-BRL) and the primers: […]
To obtain differential expression data of the T cells following CCL2 incubation, the differences between mRNA levels in this cell population were identified by screening mouse DNA chip arrays using the Affymatrix genechip expression analysis system (mouse 430 A2.0). The system consisted of two parameters: probe array and RNA target. Probe array included approximately 20,000 murine genes and ESTs. Each gene or EST was analyzed with approximately 20 pairs of specific, unique 25 mer-oligonucleotides probe. Each probe type was located in a specific area called probe cell. Each probe cell contained millions of copies of a given probe. All probe cells together made up the probe array (Affymetrix Genechip Expression Technical Manual). RNA from CCL2 treated T cells and from control T cells was converted to cDNA and then in vitro transcribed while labeled with biotin (see methods for RNA isolation and cells separation). The target RNA was hybridized to the probe array. The hybridized probe array was stained with streptavidin phycoerythrin conjugate and scanned by the GeneArray scanner. The amount of light emitted was proportional to the bound target at each location on the probe array. The two populations were compared according to the hybridization intensity in each cell.
mRNA levels of actin and CD151 were analyzed by quantitative real-time RT-PCR using a Light-Cycler instrument (Roche Diagnostics, Mannheim, Germany). […]

CCL2: chemokine, also called Macrophage Chemotactic Protein-1 or MCP-1 (PeproTech), used at picomolar levels, 1 ng/ml
adhesion strengthening after arrest (resistance to detachment) ([1]; continuous/high shear stress): failed to remain firmly adhered
LFA-1 activation by surface bound CCL21 (arrest/accumulation on ICAM-1) ([1]; low shear stress): minor effect
CD151 cell surface expression ([2]; CCR2-/- T cells, FIG. 1G): no change was detected
CD151 cell surface expression ([2]; control T cells, different time periods, FIGS. 1E-F): downregulated CD151 cell surface expression levels
progression of asthma and adjuvant arthritis [3]: attenuated progression of both asthma and adjuvant arthritis
T lymphocyte homing to peripheral lymph nodes [4]: inhibit T lymphocyte homing to peripheral lymph nodes
CD151/VLA4 complex (β1 integrin pulled down with CD151) ([5]; CCR2-/- T cells incubated with CCL2, FIG. 4B): no effect
CD151/VLA4 complex (β1 integrin pulled down with CD151) ([5]; control T cells incubated with CCL2, several time periods, FIG. 4A): disappearance of the CD151/VLA4 complex
actin polymerization elevation induced by CD151 activation ([6]; CCR2-/- T cells, CCL2 10 minutes before activating anti-CD151, FIG. 4D): not apparent
CCL21-induced actin polymerization ([6]; control T cells, CCL2 1 ng/ml (pM levels) 1 hour, then CCL21 100 ng/ml, FIGS. 1A-B): suppressed actin polymerization
actin polymerization elevation induced by CD151 activation ([6]; control T cells, longer CCL2 incubation (20 hours), FIG. 4E): maintained
actin polymerization elevation induced by CD151 activation ([6]; control T cells, pM CCL2 10 minutes before activating anti-CD151 1 hour, then CCL21, FIG. 4C): completely abolished
β-catenin phosphorylation induced by CD151 activation [7]: completely abolished
transcription of CD151 (RT-PCR) ([8]; CCR2-/- T cells, pM CCL2, FIG. 1D): no inhibition was observed
differential gene expression of CD151 (DNA chip array) ([8]; T cells incubated 2 hours with CCL2): downregulated
transcription of CD151 (RT-PCR) ([8]; control naive T cells, pM CCL2, 1, 2 or 4 hours, FIG. 1C): downregulated following 2 and 4 hour incubations

From US20120070449A1, “METHODS OF TREATING INFLAMMATION” (Yeda Research And Development Co. Ltd., priority 2009, published 2012)
